According to US12029715B2, “Precursor compounds for providing retinoids of the vitamin A5 pathway and uses thereof” (UNIVERSITY OF DEBRECEN, priority 2015, dated 2024):
“Also recorded” adds a separate entry of the source.

Key:
C57BL/6N mice = test: Chronic social defeat stress model, forced swim test; assay type: in vivo, mouse
Experimental: (§1) The forced swim paradigm was carried out between 1 pm and 4 pm in a 3-litre glass beaker half-filled with water at 22-23° C. (the water depth was 17 cm). All mice were tested only once in this task. To this end, each mouse was lowered gently into the water and the time of immobility was scored during a 6-minute testing period. The mouse was judged immobile when it floated in an upright position and made only small movements to keep its head above the water. After 6 min, the mouse was taken out of the water, left to dry under a red light lamp and returned to its home cage. The immobility scores of each animal were used as an index of despair behavior.
(§2) Social defeat stress procedure was a modified version of the protocol previously described (Berton, McClung et al. 2006). C57BL/6N mice were defeated chronically for 10 consecutive days. Every day they were exposed to the physical contact with an unfamiliar CD1 aggressor in its home cage for maximal interaction time of 5 minutes. After each session of physical stress, C57BL/6N and CD1 mice were separated by a perforated wall and maintained in sensory contact for 24 h. After the last session of stress, mice were transferred into new cages and housed separately throughout the behavioral tests period. C57BL/6N control mice, similarly to the experimental animals, were housed two per cage separated by a metal perforated wall. Every day, they were exposed to the physical contact for 5 minutes.
For behavioral analysis, 9CDHROL and 9CDHBC were dissolved in ethanol, and then mixed with sunflower oil, so that the final solution contained 3% ethanol. Vehicle treatments consisted of 3% ethanol solution in sunflower oil. For memory studies treatments with 9CDHRA were administered by intraperitoneal injections at volume/weight ratio 3 ml/kg at 7 am and 7 hours before the beginning of testing. For tests with animal model of chronic social defeat, different treatments were administered by intraperitoneal injections at volume/weight ratio 3 ml/kg at 10 mg/kg for each substance between 5-6 pm every second day of stress protocol immediately after the stress session starting from day 1 of the stress protocol.
as §1, with “paradigm (Dalvi and Lucki, 1999)” for “paradigm”, “2-litre” for “3-litre”
as §2, with “(Berton” for “(Berton, McClung”, “C57BL/6N control mice, similarly to the experimental animals, were housed two per cage separated by a metal perforated wall. Every day, they were exposed to the physical contact for 5 minutes.” left out

[1] = system: oligodendrocytes cell line 158N; test: Metabolic conversion in mouse oligodendrocytes cell culture (LC-MS); assay type: in vitro ADME; details: for 9CDHRA levels in cells after treatment: 10^−5M for 18 h; for ATROL levels in cells after treatment: 10^−6M
How it was run: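 Mouse 158N oligodendrocytes at 70–80% confluency were treated with retinoid precursors or esters, with ethanol as vehicle, at 10^−6 M in one variant and from a 10^−2 M ethanol solution in the other. Cells were harvested after 18 h under limited light. Metabolites were analysed by LC-MS.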

[2] = system: human oligodendrocytes cell cultures; test: Metabolic conversion in human oligodendrocytes cell culture (HPLC-MS); assay type: in vitro ADME; details: for 9CDHRA levels in cells after treatment (metabolism / accumulation): 10^−6M, n=3
How it was run: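 Cultured human oligodendrocytes at 80% confluency were treated with each retinoid or carotenoid at 10^−6 M for 18 h, with ethanol vehicle as control. Harvested cells were analysed by HPLC-MS for 9CDHRA levels, n=3 with standard deviation.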

hRXRα LBD = molecular target: T1, hRXRα LBD (Homo sapiens, UniProt P19793); test: Fluorescence quenching assay, binding to RXRα LBD
T1 sequence (P19793 223-462): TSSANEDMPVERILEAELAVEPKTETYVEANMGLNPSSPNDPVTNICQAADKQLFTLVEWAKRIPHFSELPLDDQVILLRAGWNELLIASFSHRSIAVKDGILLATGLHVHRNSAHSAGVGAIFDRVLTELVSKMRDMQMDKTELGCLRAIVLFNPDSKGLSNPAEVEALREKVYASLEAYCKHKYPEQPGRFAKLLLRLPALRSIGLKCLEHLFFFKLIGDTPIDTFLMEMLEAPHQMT
Experimental: Quenching of tryptophan fluorescence was monitored at 10° C. using 5 nm of excitation and 5 nm of emission slit-width.

[3] = system: Rbp1−/−, Rxrγ−/− and WT mice; test: Forced swim test after acute treatment; assay type: in vivo, mouse; details: for immobility (despair) in the forced swim test: acute i.p. treatment 5-6 h before the test
Experimental: as §1
Vehicle treatments consisted of 3% ethanol and 3% DMSO solution in sunflower oil. Treatments were administered by intraperitoneal injections at volume/weight ratio 3 ml/kg between 8-10 am and 5-6 h before the test as previously validated (Wietrzych-Schindler M, 2011).
as §1, with “paradigm (Dalvi and Lucki, 1999)” for “paradigm”, “2-litre” for “3-litre”

Row | Kd (hRXRα LBD) [µM] | Structure (SMILES) | 9CDHRA levels in cells after treatment [1] | ATROL levels in cells after treatment [1] | 9CDHRA levels in cells after treatment (metabolism / accumulation) [2] | immobility (despair) in the forced swim test ([3]; Rbp1−/− mice) | also measured
1 | 0.09 ± 0.02 | CC(C=CC1=C(C)CCCC1(C)C)=CC=CC(C)CC(=O)O (stereo not drawn) [9CDHRA, 9-cis-13,14-dihydroretinoic acid] | very strong increase | a low conversion or induced increase | strong accumulation | – | immobility time versus stressed, nontreated mice (C57BL/6N mice; 3 mg/kg): displayed anti-despair effects; immobility time in the forced swim test (C57BL/6N mice; stressed mice, 1 or 3 mg/kg during the stress protocol): decreased such immobility in stressed mice in a dose dependently manner; also recorded: efficiently normalized immobility time
2 | – | CC1=C(/C=C/C(C)=C\C=C\C(C)CCO)C(C)(C)CCC1 (stereo not drawn) [9CDHROL, 9-cis-13,14-dihydroretinol] | strong increase | a low conversion or induced increase | moderately but significantly metabolized | – | immobility time in the forced swim test (C57BL/6N mice; stressed mice, 10 mg/kg i.p. every second day of stress protocol, 10 mg/kg): decreased such immobility; also recorded: efficiently normalised immobility time; 9CDHROL levels in cells after treatment ([1]; 10^−6 M, 18 hours): increases; also recorded: excellent/strongly; conversion to 9CDHRA ([1]; data not shown): excellent precursor; precursor substrate of 9CDHROL ([2]; in vitro): excellent precursor substrates
3 | 0.09 ± 0.02 | CC1=C(/C=C/C(C)=C\C=C\[C@H](C)CC(=O)O)C(C)(C)CCC1 [(R)-9CDHRA, (9Z,13R)-13,14-Dihydroretinoic Acid] | – | – | – | reduce despair behavior; also recorded: reduced in dose dependent manner immobility | dose attaining maximal effect on immobility in the forced swim test ([3]; Rbp1−/− mice, acute treatment): 1 mg/kg; immobility time in the forced swim test ([3]; Rxrγ−/− mice, 2 mg treatment): 120 ± 25 s
4 | – | CC1(C)CCC(C)(C)c2cc(C3(c4ccc(C(=O)O)cc4)OCCO3)ccc21 [UVI2108, reference compound] | – | – | – | reduced significantly immobility time | immobility time in the forced swim test, compared with 9CDHRA (C57BL/6N mice; stressed mice, UVI2108 during the stress protocol): comparable
